Assay results as given in ChEMBL document CHEMBL1201862, “PubChem BioAssay data set” (2004).
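Five compound concentrations were applied to cells in 96-well plates for 48 hours; endpoints were derived by simple linear interpolation of the resulting dose-response curve. GI50 is the concentration that inhibits growth by half.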 The source made the active and inactive calls. Rule as the data show it: active = GI50 up to about 1.1 µM and inactive = higher.

Tests used:
Assay in all cases: NCI tumour cell line growth inhibition, 48 h
HCT-116 = tested on: HCT-116
CCRF-CEM = tested on: CCRF-CEM
OVCAR-4 = tested on: OVCAR-4
HT-29 = tested on: HT-29
CAKI-1 = tested on: CAKI-1
SF-295 = tested on: SF-295
RPMI-8226 = tested on: RPMI-8226
U-251 = tested on: U-251
OVCAR-3 = tested on: OVCAR-3
Hs-578T = tested on: Hs-578T
SF-268 = tested on: SF-268
MDA-MB-435 = tested on: MDA-MB-435
EKVX = tested on: EKVX
NCI-H460 = tested on: NCI-H460
SNB-19 = tested on: SNB-19
HCC 2998 = tested on: HCC 2998
HOP-62 = tested on: HOP-62
IGROV-1 = tested on: IGROV-1
UO-31 = tested on: UO-31

Measured: GI50

Nc1nc(-c2ccc3ccccc3c2)cc(-c2cc(-c3ccc4ccccc4c3)nc(N)n2)n1
inactive: HCT-116 > 100 µM | CCRF-CEM > 100 µM | OVCAR-4 > 100 µM | HT-29 > 100 µM | CAKI-1 > 100 µM | SF-295 > 100 µM | RPMI-8226 > 100 µM | U-251 > 100 µM | OVCAR-3 > 100 µM | Hs-578T > 100 µM | SF-268 > 100 µM | MDA-MB-435 > 100 µM | EKVX 75.3 µM | NCI-H460 > 100 µM | SNB-19 > 100 µM | HCC 2998 > 100 µM | HOP-62 > 100 µM | IGROV-1 > 100 µM | UO-31 > 100 µM

COc1ccc(/C=C2\NC(=S)N(/C=C3\C(=O)Oc4ccccc4C3=O)C2=O)cc1OC
inactive: HCT-116 > 100 µM | CCRF-CEM 45 µM | OVCAR-4 > 100 µM | HT-29 > 100 µM | CAKI-1 > 100 µM | SF-295 > 100 µM | RPMI-8226 > 100 µM | U-251 > 100 µM | OVCAR-3 87.3 µM | Hs-578T 87.5 µM | SF-268 > 100 µM | MDA-MB-435 > 100 µM | EKVX 54.5 µM | NCI-H460 > 100 µM | SNB-19 > 100 µM | HCC 2998 > 100 µM | HOP-62 > 100 µM | IGROV-1 78.3 µM | UO-31 54.6 µM

OC1(CCc2ccccc2)COC(C(F)(F)F)(C(F)(F)F)C1 (stereo unspecified)
inactive: HCT-116 > 100 µM | CCRF-CEM > 100 µM | OVCAR-4 > 100 µM | HT-29 > 100 µM | CAKI-1 > 100 µM | SF-295 > 100 µM | RPMI-8226 97.3 µM | U-251 > 100 µM | OVCAR-3 > 100 µM | Hs-578T > 100 µM | SF-268 > 100 µM | MDA-MB-435 > 100 µM | EKVX > 100 µM | NCI-H460 > 100 µM | SNB-19 > 100 µM | HCC 2998 > 100 µM | HOP-62 > 100 µM | IGROV-1 > 100 µM | UO-31 > 100 µM

CC(C)c1cc(C(C)C)c(P2(=O)CC3C(Cl)(Cl)C3(C)C2)c(C(C)C)c1 (stereo unspecified)
inactive: HCT-116 7.29 µM | CCRF-CEM 2.24 µM | OVCAR-4 4.94 µM | HT-29 9.33 µM | CAKI-1 4.71 µM | SF-295 7.31 µM | RPMI-8226 3.24 µM | U-251 8.67 µM | OVCAR-3 7.57 µM | Hs-578T 17.3 µM | SF-268 12.1 µM | MDA-MB-435 9.73 µM | EKVX 15.8 µM | NCI-H460 11.5 µM | SNB-19 7.91 µM | HCC 2998 13.4 µM | HOP-62 10.3 µM | IGROV-1 12.1 µM | UO-31 1.86 µM

O=c1ccc2ccc(OP(=O)(O)O)cc2o1
inactive: HCT-116 > 100 µM | CCRF-CEM > 100 µM | OVCAR-4 > 100 µM | HT-29 > 100 µM | CAKI-1 > 100 µM | SF-295 > 100 µM | RPMI-8226 > 100 µM | U-251 > 100 µM | OVCAR-3 > 100 µM | Hs-578T > 100 µM | SF-268 > 100 µM | MDA-MB-435 > 100 µM | EKVX > 100 µM | NCI-H460 > 100 µM | SNB-19 > 100 µM | HCC 2998 > 100 µM | HOP-62 > 100 µM | IGROV-1 > 100 µM | UO-31 > 100 µM

CC1CC2(OC2C)C(=O)OC2CCN(C)C/C=C(/COC(=O)C1(C)O)C2=O (stereo unspecified)
inactive: HCT-116 > 100 µM | CCRF-CEM > 100 µM | OVCAR-4 > 100 µM | HT-29 > 100 µM | CAKI-1 > 100 µM | SF-295 > 100 µM | RPMI-8226 > 100 µM | U-251 > 100 µM | OVCAR-3 > 100 µM | Hs-578T > 100 µM | SF-268 > 100 µM | MDA-MB-435 > 100 µM | EKVX > 100 µM | NCI-H460 > 100 µM | SNB-19 > 100 µM | HCC 2998 > 100 µM | HOP-62 > 100 µM | IGROV-1 > 100 µM | UO-31 > 100 µM

O=C1Nc2ccccc2C1S(=O)(=O)c1ccccc1 (stereo unspecified)
inactive: HCT-116 > 100 µM | CCRF-CEM > 100 µM | OVCAR-4 > 100 µM | HT-29 > 100 µM | CAKI-1 > 100 µM | SF-295 > 100 µM | RPMI-8226 > 100 µM | U-251 > 100 µM | OVCAR-3 > 100 µM | Hs-578T > 100 µM | SF-268 > 100 µM | MDA-MB-435 > 100 µM | EKVX > 100 µM | NCI-H460 > 100 µM | SNB-19 > 100 µM | HCC 2998 > 100 µM | HOP-62 > 100 µM | IGROV-1 > 100 µM | UO-31 > 100 µM

COC(=O)c1ccccc1C1CN=NC12Cc1c(C)cccc1C2=O (stereo unspecified)
inactive: HCT-116 69.2 µM | CCRF-CEM > 100 µM | OVCAR-4 > 100 µM | HT-29 > 100 µM | CAKI-1 > 100 µM | SF-295 79.4 µM | RPMI-8226 > 100 µM | U-251 80.7 µM | OVCAR-3 > 100 µM | Hs-578T > 100 µM | SF-268 > 100 µM | MDA-MB-435 > 100 µM | EKVX > 100 µM | NCI-H460 > 100 µM | SNB-19 > 100 µM | HCC 2998 > 100 µM | HOP-62 > 100 µM | IGROV-1 > 100 µM | UO-31 73.1 µM

CCOC(=O)c1cn2c(n1)sc1cc(Cl)cc(Cl)c12
inactive: HCT-116 > 100 µM | CCRF-CEM > 100 µM | OVCAR-4 > 100 µM | HT-29 > 100 µM | CAKI-1 > 100 µM | SF-295 > 100 µM | RPMI-8226 > 100 µM | U-251 > 100 µM | OVCAR-3 > 100 µM | Hs-578T > 100 µM | SF-268 > 100 µM | MDA-MB-435 > 100 µM | EKVX > 100 µM | NCI-H460 > 100 µM | SNB-19 > 100 µM | HCC 2998 > 100 µM | HOP-62 > 100 µM | IGROV-1 > 100 µM | UO-31 > 100 µM

COc1ccc(CCc2ccc(O)c(C(=O)O)c2)cc1OC
inactive: HCT-116 65.5 µM | CCRF-CEM 50.7 µM | OVCAR-4 > 100 µM | HT-29 > 100 µM | CAKI-1 32.4 µM | SF-295 > 100 µM | RPMI-8226 > 100 µM | U-251 > 100 µM | OVCAR-3 > 100 µM | Hs-578T > 100 µM | SF-268 > 100 µM | MDA-MB-435 > 100 µM | EKVX > 100 µM | NCI-H460 > 100 µM | SNB-19 > 100 µM | HCC 2998 > 100 µM | HOP-62 > 100 µM | IGROV-1 > 100 µM | UO-31 > 100 µM

O=C1O[C@H]2C3C4CCC(C4[C@@H]2I)[C@H]13 (stereo partly specified)
inactive: HCT-116 > 100 µM | CCRF-CEM > 100 µM | OVCAR-4 > 100 µM | HT-29 > 100 µM | CAKI-1 > 100 µM | SF-295 > 100 µM | RPMI-8226 > 100 µM | U-251 > 100 µM | OVCAR-3 > 100 µM | Hs-578T > 100 µM | SF-268 > 100 µM | MDA-MB-435 > 100 µM | EKVX > 100 µM | NCI-H460 > 100 µM | SNB-19 > 100 µM | HCC 2998 > 100 µM | HOP-62 > 100 µM | IGROV-1 > 100 µM | UO-31 > 100 µM

Cc1ccc(/C=N/Nc2ccccn2)s1
inactive: HCT-116 > 44.7 µM | CCRF-CEM > 100 µM | OVCAR-4 > 100 µM | HT-29 > 67.8 µM | CAKI-1 > 100 µM | SF-295 > 100 µM | RPMI-8226 > 100 µM | U-251 > 100 µM | OVCAR-3 > 55.7 µM | Hs-578T > 100 µM | SF-268 > 64.6 µM | MDA-MB-435 > 100 µM | EKVX > 72.8 µM | NCI-H460 > 100 µM | SNB-19 > 100 µM | HCC 2998 > 100 µM | HOP-62 > 100 µM | IGROV-1 > 100 µM | UO-31 97.7 µM

COc1ccc(C2CC(c3c(O)ccc4ccccc34)=NN2c2ccc([N+](=O)[O-])cc2[N+](=O)[O-])cc1OC (stereo unspecified)
inactive: HCT-116 15.8 µM | CCRF-CEM 6.03 µM | OVCAR-4 16.6 µM | HT-29 10.6 µM | CAKI-1 16.9 µM | SF-295 12.2 µM | RPMI-8226 3.87 µM | U-251 17.6 µM | OVCAR-3 12.1 µM | Hs-578T 19.4 µM | SF-268 25.4 µM | MDA-MB-435 24 µM | EKVX 14 µM | NCI-H460 14.6 µM | SNB-19 15.3 µM | HCC 2998 28.5 µM | HOP-62 21.5 µM | IGROV-1 13 µM | UO-31 9.25 µM

CC(=O)c1ccc2c(c1)CC1(C2)Cc2cc3c(cc2C1=O)CCC3 (stereo unspecified)
inactive: HCT-116 17.5 µM | CCRF-CEM 13.3 µM | OVCAR-4 15.1 µM | HT-29 15.7 µM | CAKI-1 12.9 µM | SF-295 21.8 µM | RPMI-8226 11.1 µM | U-251 30.3 µM | OVCAR-3 16.1 µM | Hs-578T 27.6 µM | SF-268 28.9 µM | MDA-MB-435 17 µM | EKVX 25.2 µM | NCI-H460 26.1 µM | SNB-19 58.9 µM | HCC 2998 18.6 µM | HOP-62 28 µM | IGROV-1 19.8 µM | UO-31 26.1 µM
